Reference: patent publication US20260293937A1, “SHRIMP FEED AND METHODS OF USE THEREOF” (Organicin Scientific, Inc., priority 2023, published 2026)
No end group written: not given here.

Columns and labels:
[1] = system: Vibrio parahaemolyticus (VPX); test: Zone of inhibition, Nisin with and without EDTA (Example 6); format: cell-based; settings: 4.05 mg/mL Nisin in CAB, with or without 20.8 mM EDTA
Procedure: (§1) ImmuCell Nisin A (96% pure) suspended in citric acid buffer (pH 3.4) at 4.05 mg/mL (ImmuCell, Portland, ME); Nisin A (Nissen®-A; 10% pure powder, Siveele, Breda, Netherlands): Citric Acid Buffer (CAB) pH=3.4; 60 mm Petri Dishes; Laboratory control strain of Staphylococcus aureus (“SAI”), experimental strains of Escherichia coli (“ECY” and “ECX”) and Vibrio parahaemolyticus (“VPY”, and “VPX”); and ethylenediaminetetraacetic acid (EDTA: 99% pure) powder (USB Corporation) were used.
(§2) On the day before the experiment, stocks of Vibrio parahaemolyticus, Staphylococcus aureus, and Escherichia coli were prepared. An inoculation loop was sterilized, cooled, and used to extract cells, which were then cultured in nutrient broth at 37° C. for 16 to 20 hours. The bacterial density was adjusted to approximately 10^7 to 10^8 CFU/mL. Subsequently, 100 μL of each culture, normalized to about 10^6 to 10^7 CFU/mL, was evenly spread on agar plates using sterile glass beads, creating a uniform bacterial lawn. Four identical lawns were prepared for each bacterial type to ensure replicative testing of treatments.
(§3) Two forms of Nisin, 96% pure Nisin (Immucell) and 10% pure Niseen (Sivele), were prepared in citric acid buffer (CAB) at a concentration of 4.05 mg/mL. To assess synergistic effects, EDTA was added to each Nisin solution to achieve a final concentration of 20.8 mM.
(§4) […] of each treatment formulation were spotted onto the prepared bacterial lawns. These plates were then incubated at 37° C. for 16 to 20 hours to allow for bacterial growth and ZOI formation.
(§5) The ZOI were observed and measured in millimeters to measure the degree of bacterial growth suppression.

[2] = system: Staphylococcus aureus (SA1); test: as above; format: cell-based; settings: 4.05 mg/mL Nisin in CAB, with or without 20.8 mM EDTA
Procedure: as §1, §2, §3, §4, §5

[3] = system: Vibrio parahaemolyticus (VPY); test: as above; format: cell-based; settings: 4.05 mg/mL Nisin in CAB, with or without 20.8 mM EDTA
Procedure: as §1, §2, §3, §4, §5

Suspension in dH2O = format: physicochemical
Procedure: (§6) Nisin variants (Nisin A, Nisin Z, and ImmuCell Nisin A) were dissolved in either citric acid buffer (CAB, pH 3.4) for Nisin A or dH2O for Nisin Z to make a stock solution of 4.86 mg/mL. Serial dilutions were performed to achieve the different concentrations (4.86 mg/mL to 0.005 mg/mL) for the experiments.

[4] = system: brine shrimp (Artemia salina); test: Brine shrimp toxicity of Nisin formulations (Example 4); format: in vivo; settings: for efficacy in reducing mortality in shrimp: Nisin Z (26.7% pure) compared with Nisin A (10% pure)
Procedure: This Example describes the efficacy of various Nisins: Nisin Z, Nisin A, and ImmuCell Nisin A. This experiment assessed the safety and antimicrobial efficacy of various Nisin formulations in treating Vibrio parahaemolyticus infections, a common pathogen in aquaculture environments. Brine shrimp (Artemia salina) were utilized as a model organism to simulate potential impacts on Pacific whiteleg shrimp (Penaeus vannamei).
as §6
(§7) Artemia salina eggs were hatched in artificial seawater (Instant Ocean) under controlled conditions. Newly hatched brine shrimp were then exposed to varying concentrations of each Nisin solution in experimental tanks. A separate set of tanks was used for each type of Nisin formulation.
Control tanks (treated with either CAB or saline water) were prepared to observe the natural behavior and survival rate of Artemia salina without Nisin exposure.
Brine shrimp were divided into different tanks for exposure to varying concentrations (2.43 mg/mL, 0.608 mg/mL, 0.152 mg/mL, and 0.038 mg/mL) of Nisin A, Nisin Z, and ImmuCell Nisin A.
(§8) Mortality and behavior of the brine shrimp were recorded at 24 and 48 hours post-exposure. For the antimicrobial tests, the diameter of inhibition zones on agar plates containing the laboratory control strains were measured and recorded.

[5] = system: Staphylococcus aureus (SA1); test: Zone of inhibition on agar plates (Example 4); format: cell-based; settings: for concentration with no killing / concentration with reduced growth / killing down to a concentration: pre-purification
Procedure: (§9) ImmuCell Nisin A (96% pure) suspended in citric acid buffer (pH-3.4) at 4.86 mg/mL (ImmuCell, Portland, ME); Nisin A (Nissen®-A; 10% pure powder, Siveele, Breda, Netherlands): Nisin Z (26.7% pure) powder (Handry, Brussels, Belgium): Citric Acid Buffer (CAB) pH=3.4; Distilled H2O (dH2O); Instant Ocean (Instant Ocean Spectrum Brands, Blacksburg. VA): Artemia salina eggs: 60 mm Petri Dishes; Laboratory control strains of Staphylococcus aureus and Escherichia coli (“SA1” and “EC-18,” respectively): 15 mL Falcon Tubes; and Slide-A-Lyzer Dialysis Flask, 2K MWCO, 250 mL (Thermo Scientific, Rockford, IL) were used.
as §6
(§10) Parallel to the toxicity tests, antibacterial efficacy was evaluated by applying Nisin solutions (before and after basic purification via Slide-A-Lyzer Dialysis) onto agar plates pre-inoculated with laboratory control strains Staphylococcus aureus (“SA1”) and Escherichia coli (“EC-18”). Zones of inhibition were measured 24 hours post-incubation at 37° C.
as §8

Escherichia coli (EC-18) = test: Zone of inhibition on agar plates (Example 4); format: cell-based; settings: for concentration with no killing / concentration with reduced growth / killing down to a concentration: pre-purification
Procedure: as §9, §6, §10, §8

E. coli (ECX) = test: Zone of inhibition, Nisin with and without EDTA (Example 6); format: cell-based, Escherichia coli; settings: 4.05 mg/mL Nisin in CAB, with or without 20.8 mM EDTA
Procedure: as §1, §2, §3, §4, §5

E. coli (ECY) = test: as above; format: cell-based, Escherichia coli; settings: 4.05 mg/mL Nisin in CAB, with or without 20.8 mM EDTA
Procedure: as §1, §2, §3, §4, §5

brine shrimp = test: Pre- and post-dialysis toxicity assay and Nisin/EDTA toxicity assay (Example 9); format: in vivo, Artemia salina; settings: after 48-hour dialysis; example in present tense
From the text: Utilizing materials, methods and experimental designs as described in Examples 1-6, Nisin Z is subjected to a 48-hour dialysis treatment to reduce impurities. The toxicity assay involves exposing brine shrimp to treated and untreated samples of Nisin Z, both alone and in combination with EDTA at a concentration of […].

[6] = highly acidic conditions, high temperatures, proteases; cited from earlier work
[7] = system: brine shrimp (Artemia salina); test: Brine shrimp toxicity of EDTA (Example 5); format: in vivo; settings: for mortality at 20000 µM: Artemia salina, 20 mM; for mortality: concentrations less than or equal to 400 µM
From the text: This Example describes the toxicity and efficacy of EDTA in reducing pathogenesis and promoting survival of shrimp. Brine shrimp (Artemia salina) were utilized as a model organism to simulate potential impacts on Pacific whiteleg shrimp (Penaeus vannamei).
Artemia salina (a species of brine shrimp) were used. Additional materials included: ethylenediaminetetraacetic acid (EDTA; 99% pure) powder (USB Corporation Instant Ocean (Instant Ocean Spectrum Brands. Blacksburg, VA); and Artemia salina eggs were used.
as §7, with “EDTA” for “each Nisin solution”, “concentration” for “type”, “EDTA (20 mM, 400 uM, 200 uM, and 100 uM).” for “Nisin formulation.”
Control tanks treated with saline water were prepared to observe the natural behavior and survival rate of Artemia salina without EDTA exposure.
Brine shrimp were divided into different tanks for exposure to varying concentrations (20 mM, 400 uM, 200 uM, and 100 uM) of EDTA.
Mortality and behavior of brine shrimp were recorded at 24 and 48 hours post-exposure.

Vibrio parahaemolyticus = test: Brine shrimp efficacy challenge trial with and without Nisin (Example 7); format: in vivo, Artemia salina; settings: vs control group exposed to Vibrio parahaemolyticus without Nisin Z; example in present tense
Procedure: Brine shrimp (Artemia salina) are used and are prepared according to methods detailed in Examples 1-6. Additional materials, methods and experimental design may be similar to that described in Examples 1-6. A virulent strain of Vibrio parahaemolyticus is cultured to a concentration of about […], which is used for the challenge. Shrimp groups are divided: one group receives no treatment (as control) and the other group set receives brine infused with Nisin Z (concentration as determined optimal in prior experiments).

[8] = Retention by 2 kDa dialysis membrane; format: physicochemical; settings: water sampled at 4 and 24 hours
Procedure: as §10
Next, the zones of inhibition for Nisin Z pre- and 48 hours post-2 kDa dialysis membrane purification were spotted onto a lawn of a control strain (SA1). […] Water samples were taken to test if any drug was lost at the 4 hour mark and again at the 24 hour mark. […] To remove additional contaminants, additional filtration is performed to purify Nisin Z.

[9] = unpurified, in dH2O, 0.608 mg/mL
[10] = all dilutions 4.86 mg/mL-0.005 mg/mL

Compound | Diameter (zone of inhibition) [1] [mm] | Diameter (zone of inhibition) [2] [mm] | Diameter (zone of inhibition) [3] [mm] | suspension with dH2O as solvent (Suspension in dH2O) | efficacy in reducing mortality in shrimp [4] | mortality [4, 9] | concentration with no killing [5] [mg/mL] | concentration with reduced growth [5] [mg/mL] | killing down to a concentration [5] [mg/mL] | concentration with no killing (Escherichia coli (EC-18)) [mg/mL] | concentration with reduced growth (Escherichia coli (EC-18)) [mg/mL] | killing down to a concentration (Escherichia coli (EC-18)) [mg/mL] | Diameter (zone of inhibition) (E. coli (ECX)) [mm] | Diameter (zone of inhibition) (E. coli (ECY)) [mm] | further results
Nisin A: Nisin A (Nissen®-A; 10% pure powder, Siveele, Breda, Netherlands) (ITSISLCTPGCKTGALMGCNMKTATCHCSIHVSK; cysteine pairing not given here; also: lantibiotic, modifications not placed; UniProt P13068 24-57, looked up) | 4 | 13 | 0 | did not go fully into suspension | comparable efficacy | drastic increase in mortality | 0.005 | 0.009 | 0.019 | 0.005 | 0.009 | 0.019 | 8 | 4 | mortality ([4]; unpurified, in dH2O, 0.152 mg/mL): showed mortality
post-dialyzed Nisin Z: Nisin Z subjected to a 48-hour dialysis treatment to reduce impurities (ITSISLCTPGCKTGALMGCNMKTATCNCSIHVSK; cysteine pairing not given here; also: lantibiotic nisin-Z, modifications not given here; UniProt P29559 24-57, looked up) |  |  |  |  |  |  |  |  |  |  |  |  |  |  | toxicity (brine shrimp): reduced toxicity
ImmuCell Nisin A: ImmuCell Nisin A (96% pure) suspended in citric acid buffer (ImmuCell, Portland, ME) (ITSISLCTPGCKTGALMGCNMKTATCHCSIHVSK; cysteine pairing not given here; also: lantibiotic, modifications not placed; UniProt P13068 24-57, looked up) | 4 | 13 | 4 |  |  |  |  |  |  |  |  |  | 10 | 6 | zones of inhibition [5, 10]: clear zones of inhibition; zones of inhibition (Escherichia coli (EC-18); [10]): clear zones of inhibition
aureocin A53 |  |  |  |  |  |  |  |  |  |  |  |  |  |  | stability [6]: stable under highly acidic conditions, high temperatures, and is not affected by proteases
O=C(O)CN(CCN(CC(=O)O)CC(=O)O)CC(=O)O [EDTA, ethylenediaminetetraacetic acid] |  |  |  |  |  |  |  |  |  |  |  |  |  |  | mortality at 20000 µM ([7]; 24 hours post-exposure): 100%; mortality at 20000 µM ([7]; 48 hours post-exposure): 100%; mortality ([7]; 24 hours post-exposure): zero mortality; mortality ([7]; 48 hours post-exposure): zero mortality
Nisin Z: Nisin Z (26.7% pure) powder (Handry, Brussels, Belgium) (ITSISLCTPGCKTGALMGCNMKTATCNCSIHVSK; not fully specified (residues 2, 5, 33, bridges); cysteine pairing not given here; UniProt P29559 24-57, looked up) |  |  |  | went into suspension fully | comparable efficacy | drastic increase in mortality | 0.005 | 0.009 | 0.019 | 0.005 | 0.009 | 0.019 |  |  | mortality rates (Vibrio parahaemolyticus): significantly lower mortality rates; loss of Nisin into the dH2O [8]: no loss of Nisin; toxicity ([4]; unpurified, in dH2O, 0.152 mg/mL to 0.038 mg/mL, 48 hours): no toxicity; zones of inhibition pre- and 48 hours post-dialysis ([5]; 2 kDa dialysis membrane purification): same sized zones
